Measurements from patent US7087623B2, “Thiazole and other heterocyclic ligands for mammalian dopamine, muscarinic and serotonin receptors and transporters, and methods of use thereof” (Sepracor Inc., priority 2001, dated 2006).
Where two headings read alike, the source gives them in different places.

Experiments:
[1] = target: T1, human dopamine D3 receptor (Homo sapiens, UniProt P35462); experiment: Radioligand binding assay, human dopamine D3 receptors ([3H]Spiperone)
T1 construct: expressed in transfected cells; host or cells: CHO
Procedure: The assay for binding to human D3 receptors was conducted according to Sokoloff, P. et al. Nature 1990, 347, 146.
CHO cells stably transfected with a plasmid encoding the human dopamine D3 receptor were used to prepare membranes in modified Tris-HCl pH 7.4 buffer using standard techniques. […] Non-specific binding was estimated in the presence of 25 μM S-(−)-sulpiride. […] See Sokoloff, P. et al. “Molecular cloning and characterization of a novel dopamine receptor (D3) as a target for neuroleptics” Nature 347: 146–151, 1990.
(§1) The human 5-HT2a and 5-HT2b screens were conducted according to Bonhaus, D. W. et al. Br. J. Pharmacol. 1995, 115, 622. The human […], W. A. et al. J. Neurochem. 1997, 69, 1449. The human 5-HT6 screen was conducted according to Monsama, F. J. et al. Mol. Pharmacol. 1993, 43, 320. The assay to human D3 receptors was conducted according to Sokoloff, P. et al. Nature 1990, 347;146. The human dopamine transporter assay was conducted according to Gu, H. et. al. J. Biol. Chem. 1994, 269 (10);7124; and Giros, B. et al. Trends. Pharmacol. Sci. 1993, 14: 43. The human muscarinic M1–M4 screens were conducted according to Buckley N. J. et al. Mol. Pharmacol. 1989, 35:469.

[2] = target: T2, human dopamine transporter (Homo sapiens, UniProt Q01959); experiment: Binding to human dopamine transporter ([125I]RTI-55); conditions: human; Example 100 table; read-out: IC50 (nM) DAT
T2 construct: expressed in transfected cells; host or cells: CHO-K1
Procedure: CHO-K1 cell membranes stably transfected with a plasmid encoding the human dopamine transporter were prepared in modified Tris-HCl pH 7.4 buffer using standard techniques. […] Non-specific binding was estimated in the presence of 10 μM nomifensine. […] Trends. […]

[3] = target: T3, human serotonin 5-HT6 receptor (Homo sapiens, UniProt P50406); experiment: Radioligand binding assay, human 5-HT6 receptors ([3H]LSD); conditions: read-out: IC50 (nM) 5-HT6
T3 construct: expressed in transfected cells; host or cells: HeLa/E6-7
Procedure: (§2) The human 5-HT2a and 5-HT2b screens were conducted according to Bonhaus, D. W. et al. Br. J. Pharmacol. 1995, 115, 622. The human 5-HT2c screen was conducted according to Wolf, W. A. et al. J. Neurochem. 1997, 69, 1449. The human 5-HT6 screen was conducted according to Monsma, F. J. et al. Mol. Pharmacol. 1993, 43, 320.
This assay measures binding of [^3H]LSD (lysergic acid diethylamide) to human serotonin 5-HT6 receptors. HeLa/E6–7 cells stably transfected with a plasmid encoding the human serotonin 5-HT6 receptor were used to prepare membranes in modified Tris-HCl pH 7.4 buffer using standard techniques. A 30 μg aliquot of membrane was incubated with 1.5 nM [^3H]LSD for 120 minutes at 37° C. Non-specific binding was estimated in the presence of 5 μM 5-HT. Membranes were filtered and washed 3 times and the filters were counted to determine [^3H]LSD specifically bound. See Monsma, Jr., F. J. et al. “Cloning and expression of a novel serotonin receptor with high affinity for tricyclic psychotropic drugs” Mol. Pharmacol. 43: 320–327, 1993.
as §1

[4] = target: T4, human serotonin 5-HT2C receptor (Homo sapiens, UniProt P28335); experiment: Radioligand binding assay, human 5-HT2C receptors ([3H]Mesulergine)
T4 construct: expressed in transfected cells; host or cells: CHO-K1
T4 sequence (P28335 33-458): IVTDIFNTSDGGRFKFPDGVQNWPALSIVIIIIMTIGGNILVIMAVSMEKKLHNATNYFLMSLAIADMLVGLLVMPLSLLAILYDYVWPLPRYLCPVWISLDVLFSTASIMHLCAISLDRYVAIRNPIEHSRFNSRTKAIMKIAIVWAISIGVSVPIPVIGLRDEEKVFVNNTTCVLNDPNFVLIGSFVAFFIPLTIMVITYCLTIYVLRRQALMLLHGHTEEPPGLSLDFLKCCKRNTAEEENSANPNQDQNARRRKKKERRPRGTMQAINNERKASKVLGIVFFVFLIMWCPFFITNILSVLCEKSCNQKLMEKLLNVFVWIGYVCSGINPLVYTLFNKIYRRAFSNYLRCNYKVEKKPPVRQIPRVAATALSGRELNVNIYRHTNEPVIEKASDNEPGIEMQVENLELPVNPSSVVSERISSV
Procedure: as §2
CHO-K1 cells stably transfected with a plasmid encoding the human serotonin 5-HT2C receptor were used to prepare membranes in modified Tris-HCl pH 7.7 buffer using standard techniques. […] Non-specific binding was estimated in the presence of 1 μM mianserin. […] See Wolf, W. A. and Schutz, J. S. “The serotonin 5-HT2C receptor is a prominent serotonin receptor in basal ganglia: evidence from functional studies on serotonin-mediated phosphoinositide hydrolysis” J. Neurochem. 69: 1449–1458, 1997.
as §1

[5] = target: T5, human serotonin 5-HT2B receptor (Homo sapiens, UniProt P41595); experiment: Radioligand binding assay, human 5-HT2B receptors ([3H]LSD)
T5 construct: expressed in transfected cells; host or cells: CHO-K1
Procedure: This assay measures binding of [^3H]LSD to human serotonin 5-HT2B receptors. CHO-K1 cells stably transfected with a plasmid encoding the human serotonin 5-HT2B receptor were used to prepare membranes in modified Tris-HCl pH 7.4 buffer using standard techniques. […] Non-specific binding was estimated in the presence of 10 μM serotonin. Membranes were filtered and washed 3 times and the filters were counted to determine [^3H]LSD specifically bound. See Bonhaus, D. W. et al. “The pharmacology and distribution of human 5-hydroxytryptamine2B (5-HT2B) receptor gene products: comparison with 5-HT2A and 5-HT2C receptors” Brit.
The human 5-HT2b screen was conducted according to Wolf, W. A. et al. J. Neurochem.

[6] = target: T6, human serotonin 5-HT2A receptor (Homo sapiens, UniProt P28223); experiment: Radioligand binding assay, human 5-HT2A receptors ([3H]Ketanserin)
T6 construct: expressed in transfected cells; host or cells: CHO-K1
Procedure: as §2
CHO-K1 cells stably transfected with a plasmid encoding the human serotonin 5-HT2A receptor were used to prepare membranes in modified Tris-HCl pH 7.7 buffer using standard techniques. […] Non-specific binding was estimated in the presence of 1 μM mianserin. […] See Bonhaus, D. W. et al. “The pharmacology and distribution of human 5-hydroxytryptamine2B (5-HT2B) receptor gene products: comparison with 5-HT2A and 5-HT2C receptors” Brit. J. Pharmacol. 115: 622–628, 1995; and Saucier, C and Albert, P. R. “Identification of an endogenous 5-hydroxytryptamine2A receptor in NIH-3T3 cells: agonist-induced down-regulation involves decreases in receptor RNA and number” J. Neurochem. 68: 1998–2011, 1997.
as §1

[7] = human, Example 100 table, read-out: IC50 (nM) D3
[8] = human 5-HT2c, Example 16 table, read-out: IC50 (nM) 5-HT2c
[9] = human 5-HT2b, Example 16 table, read-out: IC50 (nM) 5-HT2b
[10] = Example 20 table, read-out: IC50 (nM) Against Human D3 Receptors
[11] = human 5-HT2a, Example 16 table, read-out: IC50 (nM) 5-HT2a

T1 sequence (P35462 whole entry): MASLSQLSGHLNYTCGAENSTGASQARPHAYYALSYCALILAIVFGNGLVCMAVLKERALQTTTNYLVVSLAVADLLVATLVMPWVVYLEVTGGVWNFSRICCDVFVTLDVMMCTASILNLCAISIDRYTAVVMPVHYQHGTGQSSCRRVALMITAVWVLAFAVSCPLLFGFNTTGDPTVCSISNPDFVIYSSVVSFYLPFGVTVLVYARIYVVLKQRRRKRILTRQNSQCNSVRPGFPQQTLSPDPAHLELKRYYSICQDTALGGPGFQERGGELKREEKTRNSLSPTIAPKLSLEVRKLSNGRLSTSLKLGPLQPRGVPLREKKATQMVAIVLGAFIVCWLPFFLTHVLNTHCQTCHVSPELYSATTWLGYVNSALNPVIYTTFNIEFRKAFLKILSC
T2 sequence (Q01959 whole entry): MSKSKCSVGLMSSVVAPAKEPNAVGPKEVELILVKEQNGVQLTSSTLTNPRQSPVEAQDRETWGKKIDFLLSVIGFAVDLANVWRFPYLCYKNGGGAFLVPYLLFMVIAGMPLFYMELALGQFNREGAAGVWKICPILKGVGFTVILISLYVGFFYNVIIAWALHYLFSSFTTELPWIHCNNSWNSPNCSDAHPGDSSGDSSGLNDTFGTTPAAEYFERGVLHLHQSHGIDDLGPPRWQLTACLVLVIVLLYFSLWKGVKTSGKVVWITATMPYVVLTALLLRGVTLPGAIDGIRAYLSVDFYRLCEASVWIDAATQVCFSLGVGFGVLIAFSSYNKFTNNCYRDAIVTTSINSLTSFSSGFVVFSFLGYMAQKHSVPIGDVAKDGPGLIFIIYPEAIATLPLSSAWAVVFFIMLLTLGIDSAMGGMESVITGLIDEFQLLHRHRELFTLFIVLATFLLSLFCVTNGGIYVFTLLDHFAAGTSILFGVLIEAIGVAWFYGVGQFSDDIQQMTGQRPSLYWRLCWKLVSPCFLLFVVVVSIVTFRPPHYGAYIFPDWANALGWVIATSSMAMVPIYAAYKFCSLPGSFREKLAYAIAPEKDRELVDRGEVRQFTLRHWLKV
T6 sequence (P28223 whole entry): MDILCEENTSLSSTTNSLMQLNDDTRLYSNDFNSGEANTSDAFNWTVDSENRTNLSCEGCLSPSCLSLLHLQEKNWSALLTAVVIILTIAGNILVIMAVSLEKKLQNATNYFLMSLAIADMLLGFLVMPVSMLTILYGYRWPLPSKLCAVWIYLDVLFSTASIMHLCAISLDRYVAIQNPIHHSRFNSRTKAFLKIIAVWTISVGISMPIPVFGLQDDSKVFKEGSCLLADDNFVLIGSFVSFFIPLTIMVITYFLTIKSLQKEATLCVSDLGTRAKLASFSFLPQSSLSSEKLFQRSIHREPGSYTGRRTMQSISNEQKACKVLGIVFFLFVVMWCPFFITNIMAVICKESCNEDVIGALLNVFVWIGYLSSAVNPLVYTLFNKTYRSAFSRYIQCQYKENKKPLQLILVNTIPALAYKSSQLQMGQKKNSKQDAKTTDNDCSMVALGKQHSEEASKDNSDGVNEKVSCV
T3 sequence (P50406 whole entry): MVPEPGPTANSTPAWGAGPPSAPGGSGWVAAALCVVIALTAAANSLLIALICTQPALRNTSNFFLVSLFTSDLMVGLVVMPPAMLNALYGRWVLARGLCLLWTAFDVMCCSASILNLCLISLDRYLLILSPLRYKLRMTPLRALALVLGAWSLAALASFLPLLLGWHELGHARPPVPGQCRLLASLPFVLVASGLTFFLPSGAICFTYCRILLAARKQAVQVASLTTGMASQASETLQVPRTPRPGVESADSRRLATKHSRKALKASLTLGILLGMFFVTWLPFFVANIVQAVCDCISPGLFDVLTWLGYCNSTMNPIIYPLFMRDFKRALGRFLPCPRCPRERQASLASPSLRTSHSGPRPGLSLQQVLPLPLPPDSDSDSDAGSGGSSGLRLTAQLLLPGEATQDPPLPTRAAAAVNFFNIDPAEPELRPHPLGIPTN
T5 sequence (P41595 whole entry): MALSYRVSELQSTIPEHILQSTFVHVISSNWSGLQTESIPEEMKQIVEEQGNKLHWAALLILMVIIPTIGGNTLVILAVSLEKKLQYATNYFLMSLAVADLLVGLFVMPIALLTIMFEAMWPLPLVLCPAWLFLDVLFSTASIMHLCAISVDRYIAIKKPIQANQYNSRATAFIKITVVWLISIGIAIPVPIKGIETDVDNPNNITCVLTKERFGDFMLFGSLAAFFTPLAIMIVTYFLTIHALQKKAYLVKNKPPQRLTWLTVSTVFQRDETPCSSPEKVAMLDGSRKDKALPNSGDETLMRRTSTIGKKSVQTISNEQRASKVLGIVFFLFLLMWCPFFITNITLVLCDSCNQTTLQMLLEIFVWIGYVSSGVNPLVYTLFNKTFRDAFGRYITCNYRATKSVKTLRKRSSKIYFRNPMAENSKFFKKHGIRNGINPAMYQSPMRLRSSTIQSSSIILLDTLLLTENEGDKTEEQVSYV

SMILES | IC50 [1, 7] [nM] | IC50 [2] [nM] | IC50 ([3]; human, Example 100 table) [nM] | IC50 [4, 8] [nM] | IC50 [5, 9] [nM] | IC50 [1, 10] [nM] | IC50 ([3]; human 5-HT6, Example 16 table) [nM] | IC50 [6, 11] [nM] | IC50 ([4]; human, Example 100 table, read-out: IC50 (nM) 5-HT2C) [nM] | IC50 ([5]; human, Example 100 table, read-out: IC50 (nM) 5-HT2B) [nM] | IC50 ([6]; human, Example 100 table, read-out: IC50 (nM) 5-HT2A) [nM]
CN1CCC(N(C)c2nc(C3(c4ccc(Cl)cc4)CCCC3)cs2)C1 (stereo not drawn) [Compound 116] | > 1000 | < 1000 | < 10 | – | – | – | – | – | – | – | –
CC(C)N1CCN(c2nc(C3(c4ccc(F)cc4)CCCCC3)cs2)CC1 [Compound 80] | – | – | – | < 1000 | < 1000 | < 1000 | > 1000 | > 1000 | – | – | –
CN1CCCC1CCNc1nc(C2(c3ccccc3F)CCCC2)cs1 (stereo not drawn) [Compound 111] | < 1000 | > 1000 | < 1000 | – | – | – | – | – | – | – | –
Fc1ccccc1C1(c2csc(N3CCNCC3)n2)CCCC1 [Compound 121] | > 1000 | > 1000 | < 100 | – | – | – | – | – | – | – | –
Clc1ccc(C2(c3csc(C4CCNCC4)n3)CCC2)cc1 [Compound 30, 4-{4-[1-(4-chlorophenyl)cyclobutyl]thiazol-2-yl}-piperidine] | – | – | – | < 1000 | < 1000 | > 1000 | < 1000 | < 1000 | – | – | –
CN1CCN(c2nc(C3(c4ccc(C(F)(F)F)cc4)CCOCC3)cs2)CC1 [Compound 43] | – | – | – | > 1000 | > 1000 | < 1000 | < 1000 | > 1000 | – | – | –
Clc1ccc(C2(c3csc(NCCCN4CCOCC4)n3)CCC2)cc1 [Compound 21, {4-[1-(4-chlorophenyl)-cyclobutyl]thiazol-2-yl}-(3-morpholin-4-yl-propyl)amine] | – | – | – | < 1000 | < 1000 | > 1000 | > 1000 | > 1000 | – | – | –
Clc1cccc(C2(c3csc(C4CCCNC4)n3)CCOCC2)c1 (stereo not drawn) [Compound 38] | – | – | – | > 1000 | > 1000 | > 1000 | < 1000 | > 1000 | – | – | –
CN1CCC(c2nc(C3(c4cccc(Cl)c4)CCOCC3)cs2)CC1 [Compound 69] | – | – | – | > 1000 | > 1000 | > 1000 | < 1000 | > 1000 | – | – | –
Clc1ccc(C2(c3nc(N4CCNCC4)sc3Cl)CCOCC2)cc1 [Compound 39] | – | – | – | < 1000 | < 1000 | > 1000 | < 1000 | < 1000 | – | – | –
CC(C)N1CCN(c2nc(C3(c4ccc(Cl)cc4)CCCCC3)cs2)CC1 [Compound 78] | – | – | – | > 1000 | < 1000 | < 1000 | > 1000 | > 1000 | – | – | –
COc1cccc(C2(c3csc(N4CCN(C)CC4)n3)CCOCC2)c1 [Compound 67] | > 1000 | – | < 1000 | – | – | – | – | – | > 1000 | > 1000 | > 1000
